Assay results published in patent US11957683B2, “Bicyclic compounds” (Aligos Therapeutics, Inc., priority 2021, dated 2024).
Where two headings read alike, the source gives them in different places.

Legend:
[1] = tested on: HBV; assay: HBV-DNA antiviral assay using HepG2.117 cells; format: cell-based, HBV genotype D; conditions: HBV DNA inhibition, intracellular HBV DNA by qPCR, HepG2.117 cells, 3 days incubation, read-out: EC50
Description: (§1) The following assay procedure describes the HBV antiviral assay, using HepG2.117 cells, which carry a stably integrated genotype D HBV genome under the control of a Tet-off promoter, and intracellular HBV DNA quantification as endpoint. Cell viability is assessed in parallel by measuring the intracellular ATP content using CellTiter-Glo 2.0 (Promega).
On day 0, HepG2.117 cells (which are maintained in routine cell culture with doxycycline present in the medium at a final concentration of 1 μg/mL) are seeded in 96-well plates (white with clear bottom) at a density of 2.0×10^4 cells/well (0.1 mL/well) in medium without doxycycline to induce pgRNA transcription and subsequent formation of HBV particles. The cells are incubated at 37° C. and 5% CO2.
(§2) On day 1, medium is removed from each well, the test articles are diluted in culture medium without doxcycyline and 100 μL was added to cell culture wells (9 concentrations, 4-fold dilution). For each plate, 6 untreated (merely DMSO) wells are included. The final concentration of DMSO in the culture medium is 2%. Each plate is prepared in duplicate (one for HBV DNA extraction, one for CellTiter-Glo 2.0 measurement). The cells are incubated at 37° C. and 5% CO2 for 3 days.
(§3) On day 4, cell viability is assessed using CellTiter-Glo 2.0 and cell lysates are prepared for HBV DNA extraction and subsequent quantification by qPCR.
Medium is removed from each well and 100 μL of 0.33% NP-40 in H2O was added to each well. Plates are sealed, incubated at 4° C. for 5 mins, vortexed extensively and centrifuged briefly. Next, 35 μL of lysate is added to 65 μL QuickExtract DNA Extraction Solution (Epicentre) in a PCR plate for each well. PCR plate is incubated at 65° C. for 6 mins, 98° C. for 2 mins and finally cooled to 4° C. HBV DNA is then quantified by qPCR with HBV-specific primers and probes as specified in Table 2 using the Bio-Rad SSOAdvanced Universal Probes Supermix on a CFX96 machine (Bio-Rad). The PCR cycle program consisted of 95° C. for 3 mins, followed by 40 cycles at 95° C. for 10 sec and 60° C. for 30 sec.
A DNA standard is prepared by dilution of an IDT gBlock corresponding to the amplicon with concentrations ranging from 10^2 to 10^8 copies/input (i.e., per 4 μL) and used to generate a standard curve by plotting Cq values vs. HBV DNA standard concentration. The quantity of HBV DNA in each sample is determined by interpolating from the standard curve.
(§4) Cell viability is calculated as follows: % Cell viability=(luminescence value of test sample)/(average luminescence value of 2% DMSO control)×100%. HBV DNA inhibition was calculated as follows: 100−(HBV DNA copy number of test sample)/(average HBV DNA copy number of 2% DMSO control)×100%. No normalization to entecavir is required due to the excellent dynamic window of this assay. The CC50, EC50 and EC90 values were determined by dose-response curves fitted using non-linear regression.

[2] = tested on: HepG2.117 cells; assay: Cell viability by CellTiter-Glo 2.0 (intracellular ATP) in HepG2.117 cells; format: cell-based; conditions: CellTiter-Glo 2.0, HepG2.117 cells, 3 days incubation
Description: as §1, §2, §3
(§5) Using the other plates, the cell viability is quantified by CellTiter-Glo 2.0 according to the manufacturer's manual. In brief, 100 μL of reagent solution is added to the culture plates and shaken for 2′. The plates are incubated at rt for 10 min and luminescence signal is subsequently measured on a VarioSkan Lux (ThermoFisher) plate reader.
as §4

[3] = as above; format: cell-based; conditions: human, CellTiter-Glo 2.0, HepG2.117 cells, 3 days incubation
Description: as §1, §2, §3, §5, §4

SMILES | EC50 [1] [µM] | CC50 [2] [µM] | EC50 ([1]; Hepatitis B virus, 72 h) [µM] | CC50 at 3 days [3] [µM]
C=C[C@H](C)Nc1nc2c(c(=O)n1-c1ccc(C(=O)NC)cc1Cl)C[C@@H](C)N(C(=O)c1ccc(Br)c(C(F)(F)F)c1)C2 (atropisomer, axis not shown) [Compound 45, 4-[(6R)-7-[4-bromo-3-(trifluoromethyl)benzoyl]-6-methyl-2-[[(1S)-1-methylallyl]amino]-4-oxo-6,8-dihydro-5H-pyrido[3,4-d]pyrimidin-3-yl]-3-chloro-N-methyl-benzamide] | < 0.05 | 30.1 |  | 
C=CC(C)Nc1nc2c(c(=O)n1-c1ccc(C(=O)NC)cc1)C[C@@H](C)N(C(=O)c1ccc(Br)c(C(F)(F)F)c1)C2 (single isomer, unassigned) [Compound 2b] | < 0.05 | > 0.5 |  | 
C=CC(C)Nc1nc2c(c(=O)n1-c1ccc(-c3[nH]nnc3C)cc1)C[C@@H](C)N(C(=O)c1ccc(Br)c(C(F)(F)F)c1)C2 (single isomer, unassigned) [Compound 3b] | < 0.05 | > 0.5 |  | 
C=C[C@H](C)Nc1nc2c(c(=O)n1-c1cc3ncn(C)c3cc1F)C[C@@H](C)N(C(=O)c1ccc(Br)c(C(F)(F)F)c1)C2 [Compound 32b, (R)-7-(4-bromo-3-(trifluoromethyl)benzoyl)-2-(((S)-but-3-en-2-yl)amino)-3-(6-fluoro-1-methyl-1H-benzo[d]imidazol-5-yl)-6-methyl-5,6,7,8-tetrahydropyrido[3,4-d]pyrimidin-4(3H)-one] | < 0.05 | 21.9 |  | 
C=C[C@H](C)Nc1nc2c(c(=O)n1-c1ccc3c(c1)ncn3C1CC1)C[C@@H](C)N(C(=O)c1ccc(Br)c(C(F)(F)F)c1)C2 [Compound 38, (6R)-7-[4-bromo-3-(trifluoromethyl)benzoyl]-3-(1-cyclopropylbenzimidazol-5-yl)-6-methyl-2-[[(1S)-1-methylallyl]amino]-6,8-dihydro-5H-pyrido[3,4-d]pyrimidin-4-one] |  |  | < 0.05 | 24.3
C=C[C@H](C)Nc1nc2c(c(=O)n1-c1ccc(OC[C@@H](C)O)cn1)C[C@@H](C)N(C(=O)c1ccc(Br)c(C(F)(F)F)c1)C2 [Compound 39, (6R)-7-[4-bromo-3-(trifluoromethyl)benzoyl]-3-[5-[(2R)-2-hydroxypropoxy]-2-pyridyl]-6-methyl-2-[[(1S)-1-methylallyl]amino]-6,8-dihydro-5H-pyrido[3,4-d]pyrimidin-4-one] |  |  | < 0.05 | 28.1
C=C[C@H](C)Nc1nc2c(c(=O)n1-c1ccc3c(ncn3C)n1)C[C@@H](C)N(C(=O)c1ccc(Br)c(C(F)(F)F)c1)C2 [Compound 40, (6R)-7-[4-bromo-3-(trifluoromethyl)benzoyl]-6-methyl-2-[[(1S)-1-methylallyl]amino]-3-(1-methylimidazo[4,5-b]pyridin-5-yl)-6,8-dihydro-5H-pyrido[3,4-d]pyrimidin-4-one] |  |  | < 0.05 | > 50
C=C[C@H](C)Nc1nc2c(c(=O)n1-c1ccc(C(=O)NC)nc1)C[C@@H](C)N(C(=O)c1ccc(Br)c(C(F)(F)F)c1)C2 [Compound 41, 5-[(6R)-7-[4-bromo-3-(trifluoromethyl)benzoyl]-6-methyl-2-[[(1S)-1-methylallyl]amino]-4-oxo-6,8-dihydro-5H-pyrido[3,4-d]pyrimidin-3-yl]-N-methyl-pyridine-2-carboxamide] |  |  | < 0.05 | > 50
C=C[C@H](C)Nc1nc2c(c(=O)n1-c1cnc(C(=O)NC)c(Cl)c1)C[C@@H](C)N(C(=O)c1ccc(Br)c(C(F)(F)F)c1)C2 [Compound 42, 5-[(6R)-7-[4-bromo-3-(trifluoromethyl)benzoyl]-6-methyl-2-[[(1S)-1-methylallyl]amino]-4-oxo-6,8-dihydro-5H-pyrido[3,4-d]pyrimidin-3-yl]-3-chloro-N-methyl-pyridine-2-carboxamide] |  |  | < 0.05 | > 50
C=C[C@H](C)Nc1nc2c(c(=O)n1-c1ncc(C(=O)NC)cn1)C[C@@H](C)N(C(=O)c1ccc(Br)c(C(F)(F)F)c1)C2 [Compound 43, 2-[(6R)-7-[4-bromo-3-(trifluoromethyl)benzoyl]-6-methyl-2-[[(1S)-1-methylallyl]amino]-4-oxo-6,8-dihydro-5H-pyrido[3,4-d]pyrimidin-3-yl]-N-methyl-pyrimidine-5-carboxamide] |  |  | < 0.05 | > 50
C=C[C@H](C)Nc1nc2c(c(=O)n1-c1cnc3c(ncn3C)n1)C[C@@H](C)N(C(=O)c1ccc(Br)c(C(F)(F)F)c1)C2 [Compound 46, (6R)-7-[4-bromo-3-(trifluoromethyl)benzoyl]-6-methyl-2-[[(1S)-1-methylallyl]amino]-3-(1-methylimidazo[4,5-b]pyrazin-5-yl)-6,8-dihydro-5H-pyrido[3,4-d]pyrimidin-4-one] |  |  | < 0.05 | > 50
C=C[C@H](C)Nc1nc2c(c(=O)n1-c1cc(C)c3c(c1)ncn3C)C[C@@H](C)N(C(=O)c1ccc(Br)c(C(F)(F)F)c1)C2 [Compound 47, (6R)-7-[4-bromo-3-(trifluoromethyl)benzoyl]-3-(1,7-dimethylbenzimidazol-5-yl)-6-methyl-2-[[(1S)-1-methylallyl]amino]-6,8-dihydro-5H-pyrido[3,4-d]pyrimidin-4-one] |  |  | < 0.05 | 23.7
C=C[C@H](C)Nc1nc2c(c(=O)n1-c1cc(F)c3c(c1)ncn3C)C[C@@H](C)N(C(=O)c1ccc(Br)c(C(F)(F)F)c1)C2 [Compound 48, (6R)-7-[4-bromo-3-(trifluoromethyl)benzoyl]-3-(7-fluoro-1-methyl-benzimidazol-5-yl)-6-methyl-2-[[(1S)-1-methylallyl]amino]-6,8-dihydro-5H-pyrido[3,4-d]pyrimidin-4-one] |  |  | < 0.05 | 26
C=C[C@H](C)Nc1nc2c(c(=O)n1-c1cc(F)c3ncn(C)c3c1)C[C@@H](C)N(C(=O)c1ccc(Br)c(C(F)(F)F)c1)C2 [Compound 49, (6R)-7-[4-bromo-3-(trifluoromethyl)benzoyl]-3-(7-fluoro-3-methyl-benzimidazol-5-yl)-6-methyl-2-[[(1S)-1-methylallyl]amino]-6,8-dihydro-5H-pyrido[3,4-d]pyrimidin-4-one] |  |  | < 0.05 | 23
C#Cc1ccc(C(=O)N2Cc3nc(N[C@@H](C)C=C)n(-c4ccc(C(=O)NC)cc4)c(=O)c3C[C@H]2C)cc1C(F)(F)F [Compound 50, 4-[(6R)-7-[4-ethynyl-3-(trifluoromethyl)benzoyl]-6-methyl-2-[[(1S)-1-methylallyl]amino]-4-oxo-6,8-dihydro-5H-pyrido[3,4-d]pyrimidin-3-yl]-N-methyl-benzamide] |  |  | < 0.05 | > 50
